In patent publication US12660818B2, “Strigolactone analogs and methods of using” (King Abdullah University of Science and Technology, priority 2019, dated 2026):
Where two headings read alike, the source gives them in different places.

Assays:
ShHTL7 = ShHTL7 (Striga hermonthica, UniProt A0A0M3PNA2); experiment: In vitro YLG (Yoshimulactone Green) hydrolysis competition assay with ShHTL7; format: biochemical; settings: competition with 1.0 μM YLG, 60 min, room temperature
Procedure: (§1) Purification of ShHTL7/OsD14 was carried out by adopting the procedure explained previously (Jamil et al., 2018). In vitro YLG hydrolysis assays were conducted as described before (Tsuchiya et al., 2015). About 3.0 μM of purified ShHTL7/OsD14 protein was used in a reaction buffer (1×PBS buffer, pH 7.3) with 0.1% dimethyl sulfoxide (DMSO) at a 100 μl volume on a 96-well black plate (Greiner). SL analogs (at range between 0.01 to 50 μM) were co-incubated with 1.0 μM of YLG (Tokyo Chemical Industry Co. Ltd., product number E1238) for 60 min at room temperature. In this competition assay, fluorescent intensity was measured by spectraMax i5 (Molecular Devices) at excitation at 480 nm and detection at 520 nm. The variation in fluorescence recorded over the course of 1 h of YLG incubation in protein-free buffer was subtracted from the data collected in presence of protein. IC50 values were calculated by using Quest Graph™ IC50 Calculator.

S. hermonthica seeds [1] = experiment: Parasitic seed germination bioassay, Striga; format: in vivo, Striga hermonthica; settings: for Striga germination rate / Striga germination rate (comparison in words): 2.5 μM; for Striga germination rate: 24 h at 30° C. in dark; for EC50: 10^−5M to 10^−12M
Procedure: (§2) Standard procedure was adopted to collect data for each trait, which were analyzed statistically using statistical software package R (version 3.2.2). One-way analysis of variance (ANOVA) and LSD (Least significant difference) multiple range test were applied to investigate the effect of various SL analogs (MPs 16-18 and 21-25) for various parameters. Half Maximum Effective Concentration (EC50) was calculated using IC50 toolkit (http://www.ic50.tk/index.html).
(§3) Seeds of the two root parasitic species S. hermonthica and P. aegyptiaca were tested for germination in response to MP compounds application. After pre-conditioning, as previously described (Jamil et al., 2012), Striga and Phelipanche seeds were first tested with each MP solutions at 2.5 μM concentration (55 μl per disc) and then at a concentration range from 10^−5M to 10^−12M, to calculate EC50. Sterile MilliQ water and GR24 were applied as a negative and a positive control, respectively. Treated seeds were incubated in dark for 24 h at 30° C. (for S. hermonthica) and for one week at 25° C. (for P. aegyptiaca). Germination was recorded under a binocular microscope and used to determine the germination rate (%).

OsD14 = biological target: T1, OsD14 (Oryza sativa subsp. japonica, UniProt Q10QA5); experiment: In vitro YLG (Yoshimulactone Green) hydrolysis competition assay with OsD14; format: biochemical, rice
T1 construct: made in house
T1 sequence (Q10QA5 1-318): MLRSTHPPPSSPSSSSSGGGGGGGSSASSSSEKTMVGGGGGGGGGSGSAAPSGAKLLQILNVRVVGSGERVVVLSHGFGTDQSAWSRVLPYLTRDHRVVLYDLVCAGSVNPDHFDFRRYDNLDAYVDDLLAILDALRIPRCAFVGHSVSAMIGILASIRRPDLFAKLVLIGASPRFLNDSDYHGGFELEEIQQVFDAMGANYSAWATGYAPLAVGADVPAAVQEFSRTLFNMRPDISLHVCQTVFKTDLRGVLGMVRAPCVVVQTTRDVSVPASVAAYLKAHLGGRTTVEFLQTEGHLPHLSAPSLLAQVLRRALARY
Procedure: as §1

P. aegyptiaca seeds = experiment: Parasitic seed germination bioassay, Phelipanche; format: in vivo, Phelipanche aegyptiaca; settings: 2.5 μM; for Phelipanche aegyptiaca germination rate: one week at 25° C. in dark
Procedure: as §3

[2] = tested on: rice (cv IAC-165) leaf segments; experiment: Dark-induced leaf senescence of rice leaf segments; settings: 3.0 μM; for ion leakage (loss of membrane integrity): continued to increase till day 6; for chlorophyll content: third and fourth day of treatment
Procedure: Rice seeds (cv IAC-165) were surface sterilized with 50% sodium hypochlorite solution and 0.05% Tween-20, and germinated on moist filter paper in the sealed petri plates. The petri plates with germinated seeds were transferred to white fluorescent light (130-180 μM m^−2 s^−1) with 16 h:8 h (L/D) at 28° C., to establish seedlings for one week. Seven days old uniform seedlings were selected and transferred to 50 ml tubes containing half strength modified Hoaglands nutrient solution. After one week, 2 cm leaf segments were cut from middle part of third leaves of rice plants. Each segment was put in a well (in 12-well plates) containing 4 ml of 3.0 mM MES buffer with 0.05% Tween-20. MP16 and GR24 were applied at 3.0 μM concentration. Plates were incubated at 30° C. in the dark for 7 days. After application of MP16 and GR24, plates were monitored on a daily basis and changes in leaf color, chlorophyll content and ion leakage were monitored.

[3] = tested on: SL insensitive d3 rice mutant; experiment: Rice micro tillering bioassay, SL insensitive d3 mutant; format: in vivo; settings: 2.5 μM, three weeks, no effect of treatment
Procedure: (§4) After sterilization with 50% sodium hypochlorite, rice seeds (d10/CCD8 and d3 mutants) were germinated on moist filter paper in the dark at 30° C. The germinated seeds were then transferred to light in a growth cabinet with fluorescent white light (130-180 μM m^−2 s^−1) at 30° C. for seven days. One-week old rice seedlings were shifted to 50 ml falcon tubes (one seedling per tube) filled with half-strength modified Hoagland nutrient solution. The tubes with rice seedlings were kept in green house to grow at 30° C. and 70% humidity. After one week, the rice seedlings were treated with 2.5 μM of each SL analog. Mock and GR24 (2.5 μM) were included as control treatments. Each of the SL analogs (MPs 16-18 and 21-25) was applied twice per week up to three weeks. Number of tillers per plant, plant height and dry biomass were measured after three weeks of SL analogs application at final harvest.
as §2

S. hermonthica seeds [4] = settings: previously described MPs, cited from earlier work
[5] = tested on: SL deficient d10/CCD8 rice mutant; experiment: Rice micro tillering bioassay, SL deficient d10/CCD8 mutant; format: in vivo; settings: 2.5 μM
Procedure: as §4, §2

[6] = Chemical stability in aqueous solution monitored by HPLC/UPLC; format: physicochemical; settings: aqueous solution pH 5.5-6.0, 21±1° C., HPLC, up to 3 weeks
Procedure: Three selected MPs (MP16, MP18, MP21) and rac-GR24 were tested for their chemical stability at 21±1° C. in aqueous solution with a pH of 5.5-6.0, as described previously (Jamil et al., 2018). Compound solution (1 mg ml^−1) was prepared with […] and 750 μl Mili-Q water. Thereafter, 25 μl Indanol (1 mg ml^−1, internal standard) was spiked in 975 μl previous prepared solution. The time course of degradation was monitored in about 50 μl aliquots by UPLC analysis using an Agilent HPLC ZORBAX Eclipse XDB-C18 column ([…], 4.6×150 mm) eluted first by 5% acetonitrile in water for 0.5 min then by a gradient from 5% to 100% acetonitrile within 18 min in water, and finally by 100% acetonitrile for 5 min. The column was operated at 40° C. at […] flow rate. Compounds eluted from the column were detected with a photodiode array detector, and the relative quantity of non-degraded amount was calculated using Indanol as internal standard. Stability was monitored at 24 h intervals up to 3 weeks.

Sequence of ShHTL7 (A0A0M3PNA2 entry or part of it): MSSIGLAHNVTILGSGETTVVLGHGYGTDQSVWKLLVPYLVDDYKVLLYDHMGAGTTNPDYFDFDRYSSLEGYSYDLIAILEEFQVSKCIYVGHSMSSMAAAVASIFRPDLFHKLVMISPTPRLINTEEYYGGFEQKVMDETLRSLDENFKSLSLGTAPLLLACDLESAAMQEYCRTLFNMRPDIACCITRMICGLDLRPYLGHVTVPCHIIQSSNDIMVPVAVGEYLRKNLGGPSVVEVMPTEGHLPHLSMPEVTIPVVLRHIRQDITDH

With `CC1=C[C@H](O/C=C2/C(=O)O[C@@H]3c4ccccc4C[C@H]23)OC1=O` [GR24, reference compound] as the compound, how does the IC50 (ShHTL7) read?
The IC50 was 980 ± 260 nM.

And the Striga germination rate (S. hermonthica seeds [1])?
The Striga germination rate was 72%.

And the EC50 (S. hermonthica seeds [1])?
Its EC50 is 0.0723 nM.

And the IC50 (OsD14; competition with 1.0 μM YLG, 60 min, room temperature, read-out: IC50, OsD14-mediated YLG hydrolysis)?
The IC50 was 1040 ± 90 nM.

What about the “Phelipanche aegyptiaca germination rate” value (P. aegyptiaca seeds) of the same compound?
The value was 43%.

And the “loss of the green color of leaf segments (time)” value ([2]; dark, 30° C., one day earlier than mock control)?
The value was “on the third day after application”.

What about the “ion leakage (loss of membrane integrity)” value ([2]; dark) of the same compound?
The value was “began to increase on the third day of treatment”.

What about the chlorophyll content [2] of the same compound?
The chlorophyll content was “significant reduction”.

What about the “number of tillers per plant” value [3] of the same compound?
The value was 4.

What does the source list for `COC(=O)/C(=C/OC1C=C(C)C(=O)O1)c1ccc([N+](=O)[O-])cc1` (centres unmarked) [MP1]?
EC50 relative to that of GR24 (Jamil et al., 2018) (S. hermonthica seeds [4]): about 17 times; EC50 (S. hermonthica seeds [4]; read-out: EC50 (Striga seed germination, Jamil et al., 2018)): 1.5 nM

For `CC1=CC(O/C=C(\C(=O)N(C)C)c2ccccc2)OC1=O` (centres unmarked) [MP16, (Z)—N,N-Dimethyl-3-((4-methyl-5-oxo-2,5-dihydrofuran-2-yl)oxy)-2-phenylacrylamide], which “tillering inhibition (in words)” value ([5]; d10 mutant, compared to mock treatment) is on record?
Its value is “more effective compared with MPs 19 and 20”.

What about the “effect on growth, biomass and plant height” value ([5]; rice seedlings, compared with GR24) of the same compound?
Its value is “stunted growth and triggered senescence in rice seedlings, leading to reduced biomass and plant height”.

What about the IC50 (ShHTL7) of the same compound?
The IC50 was 4370 ± 210 nM.

What about the “Striga germination rate (comparison in words)” value (S. hermonthica seeds [1]) of the same compound?
Its value is “higher than MPs 19 and 20”.

What about the Striga germination rate (S. hermonthica seeds [1]) of the same compound?
Its Striga germination rate is 62%.

And the EC50 (S. hermonthica seeds [1]; Striga hermonthica)?
The EC50 was 0.105 nM.

What about the “EC50 compared with MPs 19 and 20” value (S. hermonthica seeds [1]; Striga seed germination) of the same compound?
Its value is “lower EC50 than MPs 19 and 20”.

What about the “EC50 relative to that of GR24” value (S. hermonthica seeds [1]; Striga seed germination) of the same compound?
Its value is “less than two times higher”.

What about the “stability (relative amount of non-degraded compound) compared to GR24” value [6] of the same compound?
Its value is “in the range of that of GR24”.

And the IC50 (OsD14)?
The IC50 was 3070 ± 540 nM.

What about the “Phelipanche aegyptiaca germination rate” value (P. aegyptiaca seeds) of the same compound?
Its value is “around 51%”.

What about the “ion leakage (loss of membrane integrity)” value ([2]; dark) of the same compound?
Its value is “began to increase on the third day of treatment”.

What about the chlorophyll content [2] of the same compound?
The chlorophyll content was “significant reduction”.

What does the source list for `CC1=CC(O/C=C(/C(=O)Oc2ccccc2)c2ccccc2)OC1=O` (centres unmarked) [MP17, (E)-Phenyl 3-((4-methyl-5-oxo-2,5-dihydrofuran-2-yl)oxy)-2-phenylacrylate]?
Striga germination rate (comparison in words) (S. hermonthica seeds [1]): lower germination rate; EC50 (S. hermonthica seeds [1]; Striga hermonthica): 4350 nM

With `CC1=CC(O/C=C(/C(=O)OCc2ccccc2)c2ccccc2)OC1=O` (centres unmarked) [MP18, (E)-Benzyl 3-((4-methyl-5-oxo-2,5-dihydrofuran-2-yl)oxy)-2-phenylacrylate] as the compound, how does the “Striga germination rate (comparison in words)” value (S. hermonthica seeds [1]) read?
The value was “lower germination rate”.

And the EC50 (S. hermonthica seeds [1]; Striga hermonthica)?
Its EC50 is 6.44 nM.

What about the “EC50 compared with MPs 19 and 20” value (S. hermonthica seeds [1]; Striga seed germination) of the same compound?
Its value is “lower EC50 than MPs 19 and 20”.

What about the “stability (relative amount of non-degraded compound) compared to GR24” value [6] of the same compound?
The value was “in the range of that of GR24”.

And the “Phelipanche aegyptiaca germination rate” value (P. aegyptiaca seeds)?
The value was “around 51%”.

With `CC1=CC(O/C=C(/C(=O)OCC(C)C)c2ccccc2)OC1=O` (centres unmarked) [MP19, reference compound] as the compound, how does the “Phelipanche seed germination (comparison in words)” value (from here on “Phelipanche seed germination”) (P. aegyptiaca seeds) read?
The value was “comparable germination rate as MPs 16 and 18”.

For `CC1=CC(O/C=C(/C(=O)OCc2ccccc2)c2ccccc2)OC1=O` (centres unmarked) [MP21, (E)-Benzyl 3-((4-methyl-5-oxo-2,5-dihydrofuran-2-yl)oxy)-2-phenylacrylate], which “EC50 compared with MPs 19 and 20” value (S. hermonthica seeds [1]; Striga seed germination) is on record?
Its value is “lower EC50 than MPs 19 and 20”.

And the “stability (relative amount of non-degraded compound) compared to GR24” value [6]?
Its value is “higher degradation rate, compared to GR24”.

What about the “Phelipanche seed germination” value (P. aegyptiaca seeds) of the same compound?
The value was “lower activity”.

Which “Phelipanche seed germination” value (P. aegyptiaca seeds) does the source give for `CC1=CC(O/C=C(/C(=O)Oc2cccc(Cl)c2)c2ccccc2)OC1=O` (centres unmarked) [MP22, (E)-3-Chlorophenyl 3-((4-methyl-5-oxo-2,5-dihydrofuran-2-yl)oxy)-2-phenylacrylate] here?
Its value is “lower activity”.

For `CC1=CC(O/C=C(/C(=O)Oc2ccc(C)cc2)c2ccccc2)OC1=O` (centres unmarked) [MP24, (E)-p-Tolyl 3-((4-methyl-5-oxo-2,5-dihydrofuran-2-yl)oxy)-2-phenylacrylate], which “Phelipanche seed germination” value (P. aegyptiaca seeds) is on record?
The value was “lower activity”.

For `CC1=CC(O/C=C(/C(=O)Oc2cccc3ccccc23)c2ccccc2)OC1=O` (centres unmarked) [MP25, (E)-naphthalen-1-yl 3-((4-methyl-5-oxo-2,5-dihydrofuran-2-yl)oxy)-2-phenylacrylate], which “Phelipanche seed germination” value (P. aegyptiaca seeds) is on record?
The value was “lower activity”.
